Where a name gives a salt, the structure may show the parent alone.
Assays:
[1] = system: human breast cancer cells; conditions: by suppressing activation of NFKB induced by TNFα; cited from earlier work
human colon cancer cells = conditions: cited from earlier work
Galectin-3 = target: T1, Galectin-3 (Homo sapiens, UniProt P17931); assay: Galectin-3 binding to asialofetuin (ASF) ELISA; conditions: for Inhibition of Galectin-3 binding to its ligand asialofetuin (ASF): Galectin-3 5 μg/ml, ASF 20 μg/ml, different concentrations of compound, ELISA; for IC50: read-out: IC50, inhibition of Galectin-3 binding to its ligand
T1 construct: made in house; host or cells: E. coli
Method: (§1) Effect of the inhibitors on galectin binding to its ligand asialo fetuin (ASF) was measured by galectin ELISA. Nanty-six well plates were coated overnight with 20 μg/ml ASF in coating buffer (15 mM Na2CO3 17 mM NaHCO3 pH 9.6.). The wells were washed twice with PBS and incubated with blocking buffer (1% BSA in PBS) for 1 hr. The supernatants were removed and replaced with 5 μg/ml recombinant human galectin without or with different concentrations of the compound inhibitors or lactose in blocking buffer for 1 hr at room temperature. The wells were washed and incubated with 1 μg/ml anti-galectin antibody for 2 hr. Following addition of HRP-conjugated secondary antibody for 1 hr, FAST OPD development solution was added for 15-20 minutes. The reaction was terminated by addition of 4M sulphuric acid. The plates were read at 492 nm (reference wavelength 595 nm) by a microplate reader.

full-length galectin-3 = target: T2, full-length galectin-3 (Homo sapiens, UniProt P17931); assay: Tryptophan Fluorescence Spectroscopy (TFS) binding affinity, full-length Galectin-3
T2 construct: made in house; host or cells: E. coli
Method: The binding affinity of the inhibitors to galectin-3 was determined by Intrinsic Tryptophan Fluorescence Spectroscopy (TFS) exactly as we described recently [Sindrewicz, P., et al., Intrinsic tryptophan fluorescence spectroscopy reliably determines galectin-ligand interactions. Sci Rep, 2019. 9(1): p. 11851]. The Galectin-3 concentration used was 10 μM and the inhibitor titration concentrations were from 0 to 224 μM. DMSO/control buffer (PBS with 2 mM EDTA) titrations were performed and used for background subtraction.

[2] = system: human colon cancer SW620 cells; assay: Galectin-3-mediated SW620 cell adhesion to HUVECs; format: cell-based; conditions: Galectin-3 2 μg/ml, various concentrations
Method: HUVEC cells at 1×10^5 cells/ml in EGM medium were seeded into 24 well plates pre-inserted with 13 mm glass coverslip. The cells were incubated at 37° C. at 5% CO2 for 24 hr for monolayer formation. AGA19+ or SW620 cell suspension (5×10^5 cells/ml in DMEM) was introduced with 5 μl/ml fluorescent cell labelling solution DiL for 30 min at 37° C. The fluorescent labelled cells were washed twice with PBS and resuspended into 1×10^5 cells/ml in DMEM. The cancer cell suspension was then introduced with galectin-3 (2 μg/ml) and various concentrations of the compound inhibitors at 37° C. for 1 hr. The wells were carefully washed twice with PBS to remove the non-adhesion cells before the cells in the wells were fixed with 2% paraformaldehyde for 10 min. The glass coverslip was carefully removed from the plate, placed on a glass slide. After addition of fluorescence mounting medium containing DAPI, fluorescence labelled cells were quantified under a fluorescence microscope.

[3] = system: human colon cancer SW620 cells; assay: SW620 cell invasion through HUVECs (transwell); format: cell-based; conditions: Galectin-3 1 ug/ml, transwells, several concentrations
Method: HUVECs were plated at a density of 1.5×10^4 cells in 8 μm pore transwells in 24-well plate and cultured for three days to allow formation of tight monolayer. The integrity of HUVEC monolayer was confirmed by measuring TEER and only monolayers with TEER reading>800 Ω/cm^2 were used for the invasion assay. AGA19+ or SW620 cell suspension (5×10^5 cells/ml in DMEM) was introduced with 5 μl/ml fluorescent cell labelling solution DiL for 30 min at 37° C. The fluorescence labelled cells were washed twice with PBS and resuspended into 1×10^5 cells/ml in DMEM. […] The cells at the upper side of the trans-well inserts were gently removed with cotton swabs. The cells migrated to the bottom side of the transwells were fixed with 2% paraformaldehyde for 10 min. The trans-well membrane was removed and placed on glass slides. After addition of fluorescence mounting medium containing DAPI, the fluorescence labelled cells on the membrane were quantified under a fluorescence microscope.

[4] = system: human umbilical vein endothelial cells (HUVECs); assay: Vascular cell tubule formation (angiogenesis); format: cell-based; conditions: Galectin-3 2 μg/ml, various concentrations
Method: Matrigel matrix (50 μl) was added to 96-well plates for 60 min at 37° C. to allow gel formation. HUVEC cells (1×10^5 cells/ml in 1:1 EGM/EBM2 media) was introduced to the plates without or with galectin-3 (2 μg/ml) or different concentrations of compound inhibitors for 24 hr at 37° C. Endothelial cell tube formation was examined with Laser Microscope. The total number of branching points and the sum of the lengths of tubes were measured.

[5] = system: human colon cancer SW620 cells; assay: LDH release cytotoxicity assay, SW620; format: cell-based; conditions: various concentrations
Method: (§6) SW620 cells (5×10^4 cells/ml) were seeded into 96-well plate in DMEM (and incubated at 37° C. 5% CO2 for 24 hr. HUVECs (1.0×10^5 cells/ml) was seeded in EBM medium and incubated for 24-36 hr until they formed a monolayer. Compound inhibitors at different concentrations were then introduced to the cells (10× lysis buffer was included as maximum LDH activity control) for 24 hr. The culture medium was transferred to a new plate and was mixed with equal volume of reaction mixture provided in the kit for 30 min at room temperature before the absorbance was measured at 490 nm (reference 680 nm) by a spectrophotometer.

vascular HUVECs = assay: LDH release cytotoxicity assay, HUVECs; format: cell-based, human; conditions: various concentrations
Method: as §6

[6] = system: THP-1 differentiated macrophages; assay: Galectin-3-induced TNFα secretion from macrophages (ELISA); format: cell-based; conditions: Galectin-3 10 μg/ml, various concentrations
Method: (§2) Effect of the compound inhibitors on secretion of pro-inflammatory cytokines from macrophages were assessed in THP-1 monocyte differentiated macrophages. THP-1 cells were induced to differentiation into macrophages by incubation with 10 ng/ml PMA for 48 h at 37° C. The culture medium was then replaced with fresh medium without or with 10 μg/ml galectin-3 and various concentrations of the compound inhibitors for 24 h at 37° C. The culture medium was collected and the concentrations of TNFα and IL-1β in the culture medium were determined by TNFα and IL-1β ELISA.

[7] = system: THP-1 differentiated macrophages; assay: Galectin-3-induced IL-1β secretion from macrophages (ELISA); format: cell-based; conditions: Galectin-3 10 μg/ml, various concentrations
Method: as §2

[8] = system: human lung cancer H1975 cells; assay: Lung cancer cell adhesion to basement matrix; format: cell-based; conditions: for IC50: Homo sapiens, NCI-H1975; for Inhibition of H1975 cell adhesion to matrix: different concentrations
Method: (§3) Nanty-six well plates were coated with 50 μl Matrigel (1:30 diluted in PBS) at 37° C. for 1 hour.
(§4) Cancer cells, pre-labelled with fluorescent die DiI at 37° C. for 20 minutes, were washed twice with PBS and resuspended into 3×10^4 cells/ml in serum-free medium. The matrix-coated 96-well plates were washed twice with PBS before introduction of 100μ cell suspension with different concentrations of the inhibitors or PBS/DMSO (control) for 1 hour at 37° C. The plates were washed twice with PBS before three randomly selected Field of Views (FOVs) were recorded by fluorescence microscope and number of adhesion cells were quantified by Image J.

[9] = system: triple-negative breast cancer MDA-MB-231 cells; assay: Triple-negative breast cancer cell adhesion to basement matrix; format: cell-based, human; conditions: for Effect on adhesion of galectin-3 knockout (Gal3KO) MDA-MB-231 cells: CRISPR/Cas9 Gal3KO cells; for Effect on adhesion of non-transfected (con) MDA-MB-231 cells: control cells; for Inhibition of MDA-MB-231 cell adhesion to matrix: different concentrations
Method: as §3, §4
(§5) MDAMB-231 or PANC-1 cells were seeded into 6-well plate (2×10^5 cells) and cultured at 37° C. for 24 hour. Galectin-3 CRISPR Cas9 Knockout plasmid (2 μg) and galectin-3 HDR plasmid (2 μg) was mixed with Plasmid Transfection Medium (21 μl) for 5 minutes before addition to a mixture of lipofectamine STEM Transfection Reagent (STEM00001) (1 μl) and Plasmid Transfection Medium (25 μl) for 10 minutes at room temperature. The cells in the 6-well plates were washed and introduced with the Plasmid DNA/Lipofectamine STEM Transfection Reagent complex at 37° C. for 24 hour. The culture medium was replaced with fresh antibiotics-free medium for further 24 hour before introduction of 10 μg/mL puromycin-containing medium every three days. Successful co-transfection of the CRISPR/Cas9 KO Plasmid and HDR Plasmid was confirmed by expression of red fluorescence protein of the cells. Galectin-3 knockout in the cells was further confirmed by immunoblotting.

[10] = system: human pancreatic cancer PANC1 cells; assay: Pancreatic cancer cell adhesion to basement matrix; format: cell-based; conditions: for Effect on adhesion of galectin-3 knockout (Gal3KO) PANC1 cells: CRISPR/Cas9 Gal3KO cells; for Effect on adhesion of non-transfected (con) PANC1 cells: control cells; for Inhibition of PANC1 cell adhesion to matrix: different concentrations
Method: as §3, §4, §5

Galectin-8 = target: T3, Galectin-8 (Homo sapiens, UniProt O00214); assay: Galectin-8 binding to asialofetuin ELISA; conditions: Gal-8 5 μg/ml, ASF 20 μg/ml
T3 construct: purchased R&D Systems (Abingdon, UK)
T3 sequence (O00214 1-317): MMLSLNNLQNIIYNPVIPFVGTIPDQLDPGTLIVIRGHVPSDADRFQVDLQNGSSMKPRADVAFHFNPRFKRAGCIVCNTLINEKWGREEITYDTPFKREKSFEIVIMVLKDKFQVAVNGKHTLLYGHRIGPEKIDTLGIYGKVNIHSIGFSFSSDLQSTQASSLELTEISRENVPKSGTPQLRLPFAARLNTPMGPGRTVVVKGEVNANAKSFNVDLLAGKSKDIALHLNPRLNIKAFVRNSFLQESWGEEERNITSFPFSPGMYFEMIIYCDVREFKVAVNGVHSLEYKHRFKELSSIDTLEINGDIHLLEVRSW
Method: as §1

T1 sequence (P17931 whole entry): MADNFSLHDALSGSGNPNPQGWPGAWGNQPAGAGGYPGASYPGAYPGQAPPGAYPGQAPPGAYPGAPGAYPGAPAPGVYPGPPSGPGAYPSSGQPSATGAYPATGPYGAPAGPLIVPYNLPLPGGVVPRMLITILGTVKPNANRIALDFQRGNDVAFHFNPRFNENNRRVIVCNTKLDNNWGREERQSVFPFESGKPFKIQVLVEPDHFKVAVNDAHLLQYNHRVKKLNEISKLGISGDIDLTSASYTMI
T2 sequence (P17931 whole entry): as above

In the case of `CO/N=C1\CN(c2nc3c(cc2F)c(=O)c(C(=O)O)cn3C2CC2)CC1CN` (stereo not drawn) [Formula W, Gemifloxacin], the “Effect on migration, invasion and metastasis in human breast cancer cells” value [1] is given as “inhibit migration, invasion and metastasis” and the “Effect on migration and invasion of human colon cancer cells” value (human colon cancer cells) is given as “inhibit migration and invasion”.

In the case of `Cc1c(O)cccc1C(=O)N[C@@H](CSc1ccccc1)[C@H](O)CN1C[C@H]2CCCC[C@H]2C[C@H]1C(=O)NC(C)(C)C` [Formula Y, Nelfinavir mesylate], the “Inhibition of Galectin-3 binding to its ligand asialofetuin (ASF)” value (Galectin-3) is reported as “inhibit galectin-3 binding to ASF in a dose-dependent manner”, the IC50 (Galectin-3) is reported as ≤ 10 µM and the Kd (full-length galectin-3) is reported as ~90 µM. The “Inhibition of SW620 cell adhesion to HUVECs” value [2] was “dose-dependent inhibition”, the “Inhibition of galectin-3-mediated invasion of SW620 cells through HUVECs” value [3] was “dose-dependent inhibition” and the “Inhibition of tubule numbers” value [4] was “dose-dependent inhibition”. The “Inhibition of vascular tubule length” value [4] was “dose-dependent inhibition”, the “Cytotoxicity to SW620 cells (LDH release)” value [5] was “little or low toxicity” and the “Cytotoxicity to HUVEC cells (LDH release)” value (vascular HUVECs) was “little or low toxicity”. For the same compound, the “Inhibition of galectin-3-induced TNFα secretion” value [6] was “dose-dependent inhibition”, the “Inhibition of galectin-3-induced IL-1β secretion” value [7] was “dose-dependent inhibition” and the IC50 [8] was ~5 µM. The “Inhibition of H1975 cell adhesion to matrix” value [8] was “dose-dependent inhibition”, the “Effect on adhesion of galectin-3 knockout (Gal3KO) MDA-MB-231 cells” value [9] was “lost their inhibitory effect” and the IC50 ([9]; Homo sapiens, MDA-MB-231) was ~10 µM. The “Effect on adhesion of non-transfected (con) MDA-MB-231 cells” value [9] was “significant reduction”, the “Inhibition of MDA-MB-231 cell adhesion to matrix” value [9] was “dose-dependent inhibition” and the “Effect on adhesion of galectin-3 knockout (Gal3KO) PANC1 cells” value [10] was “lost their inhibitory effect”. For the same compound, the “Effect on adhesion of non-transfected (con) PANC1 cells” value [10] was “significant reduction” and the “Inhibition of PANC1 cell adhesion to matrix” value [10] was “dose-dependent inhibition”.

With `CN(C)CCOc1ccc(/C(=C(/CCCl)c2ccccc2)c2ccccc2)cc1` [Formula Z, Toremifene citrate] the “Inhibition of Galectin-3 binding to its ligand asialofetuin (ASF)” value (Galectin-3) was “inhibit galectin-3 binding to ASF in a dose-dependent manner”, the IC50 (Galectin-3) was ≤ 10 µM and the Kd (full-length galectin-3) was ~35 µM. The “Inhibition of SW620 cell adhesion to HUVECs” value [2] was “dose-dependent inhibition”, the “Inhibition of galectin-3-mediated invasion of SW620 cells through HUVECs” value [3] was “dose-dependent inhibition” and the “Inhibition of tubule numbers” value [4] was “dose-dependent inhibition”. The “Inhibition of vascular tubule length” value [4] was “dose-dependent inhibition”, the “Cytotoxicity to SW620 cells (LDH release)” value [5] was “low cytotoxicity” and the “Cytotoxicity to HUVEC cells (LDH release)” value (vascular HUVECs) was “low cytotoxicity”. For the same compound, the “Inhibition of galectin-3-induced TNFα secretion” value [6] was “dose-dependent inhibition”, the “Inhibition of galectin-3-induced IL-1β secretion” value [7] was “dose-dependent inhibition” and the IC50 [8] was 5 to 10 µM. For the same compound, the “Inhibition of H1975 cell adhesion to matrix” value [8] was “dose-dependent inhibition”, the “Effect on adhesion of galectin-3 knockout (Gal3KO) MDA-MB-231 cells” value [9] was “lost their inhibitory effect” and the “Effect on adhesion of non-transfected (con) MDA-MB-231 cells” value [9] was “significant reduction”. The “Inhibition of MDA-MB-231 cell adhesion to matrix” value [9] was “dose-dependent inhibition”, the “Effect on adhesion of galectin-3 knockout (Gal3KO) PANC1 cells” value [10] was “lost their inhibitory effect” and the “Effect on adhesion of non-transfected (con) PANC1 cells” value [10] was “significant reduction”. For the same compound, the “Inhibition of PANC1 cell adhesion to matrix” value [10] was “dose-dependent inhibition”.

With `OC[C@H]1O[C@@H](O[C@H]2[C@H](O)[C@@H](O)C(O)O[C@@H]2CO)[C@H](O)[C@@H](O)[C@H]1O` (stereo partly drawn) [lactose] the “Effect on Galectin-8 binding to asialofetuin” value (Galectin-8) was “dose-dependently inhibits”.
